Reference: PubChem BioAssay (NCI)
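Step 1: Grow cells in 96-well plates. Step 2: Expose to compound for 48 hours at 5 concentrations. Step 3: Interpolate endpoints linearly; if unreached, use highest concentration. TGI marks complete inhibition of growth.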

System: NCI-H23 lung
Experiment: NCI tumour cell line growth inhibition, 48 h

Structure (SMILES)	TGI [µM]
O=C1Nc2cccc(Cl)c2/C1=C\c1c(Cl)nc2n1CCS2	> 100
O=c1oc2ccc3ccccc3c2cc1-c1nc2ccccc2s1	> 100
COC[C@@H](N=CC(C)(C)C)C(C)C	> 100
C=CCc1cccc2cc(C(=O)NCc3ccccc3)c(=N)oc12	> 100
COC(=O)c1ccc(/C=C/c2cc(O)ccc2O)cc1	> 38.5
O=C(/C=C/c1ccccc1)CCC1C(=O)c2ccccc2C1=O	> 100
Brc1ccc2[nH]cc(-c3csc(-c4c[nH]c5ccccc45)n3)c2c1	8.21
COc1cc(OC)cc(Oc2nc3ccccc3nc2C(F)(F)F)c1	> 100
O=[N+]([O-])c1ccc2[nH]c(=S)[nH]c(=S)c2c1	> 100

System: SNB-75 CNS
Experiment: NCI tumour cell line growth inhibition, 48 h

Structure (SMILES)	TGI [µM]
O=C1Nc2cccc(Cl)c2/C1=C\c1c(Cl)nc2n1CCS2	> 100
O=c1oc2ccc3ccccc3c2cc1-c1nc2ccccc2s1	> 100
COC[C@@H](N=CC(C)(C)C)C(C)C	> 100
C=CCc1cccc2cc(C(=O)NCc3ccccc3)c(=N)oc12	> 100
COC(=O)c1ccc(/C=C/c2cc(O)ccc2O)cc1	68.5
O=C(/C=C/c1ccccc1)CCC1C(=O)c2ccccc2C1=O	> 100
Brc1ccc2[nH]cc(-c3csc(-c4c[nH]c5ccccc45)n3)c2c1	23.9
COc1cc(OC)cc(Oc2nc3ccccc3nc2C(F)(F)F)c1	> 100
O=[N+]([O-])c1ccc2[nH]c(=S)[nH]c(=S)c2c1	> 100

System: SF-268 CNS
Experiment: NCI tumour cell line growth inhibition, 48 h

Structure (SMILES)	TGI [µM]
O=C1Nc2cccc(Cl)c2/C1=C\c1c(Cl)nc2n1CCS2	> 100
O=c1oc2ccc3ccccc3c2cc1-c1nc2ccccc2s1	> 100
COC[C@@H](N=CC(C)(C)C)C(C)C	> 100
C=CCc1cccc2cc(C(=O)NCc3ccccc3)c(=N)oc12	> 100
COC(=O)c1ccc(/C=C/c2cc(O)ccc2O)cc1	8.41
O=C(/C=C/c1ccccc1)CCC1C(=O)c2ccccc2C1=O	> 100
Brc1ccc2[nH]cc(-c3csc(-c4c[nH]c5ccccc45)n3)c2c1	8.91
COc1cc(OC)cc(Oc2nc3ccccc3nc2C(F)(F)F)c1	> 100
O=[N+]([O-])c1ccc2[nH]c(=S)[nH]c(=S)c2c1	> 100

System: SF-539 CNS
Experiment: NCI tumour cell line growth inhibition, 48 h

Structure (SMILES)	TGI [µM]
O=C1Nc2cccc(Cl)c2/C1=C\c1c(Cl)nc2n1CCS2	> 100
O=c1oc2ccc3ccccc3c2cc1-c1nc2ccccc2s1	> 100
COC[C@@H](N=CC(C)(C)C)C(C)C	> 100
C=CCc1cccc2cc(C(=O)NCc3ccccc3)c(=N)oc12	> 100
COC(=O)c1ccc(/C=C/c2cc(O)ccc2O)cc1	6.65
O=C(/C=C/c1ccccc1)CCC1C(=O)c2ccccc2C1=O	> 100
Brc1ccc2[nH]cc(-c3csc(-c4c[nH]c5ccccc45)n3)c2c1	16.7
COc1cc(OC)cc(Oc2nc3ccccc3nc2C(F)(F)F)c1	> 100
O=[N+]([O-])c1ccc2[nH]c(=S)[nH]c(=S)c2c1	> 100

System: A498 renal
Experiment: NCI tumour cell line growth inhibition, 48 h

Structure (SMILES)	TGI [µM]
O=C1Nc2cccc(Cl)c2/C1=C\c1c(Cl)nc2n1CCS2	> 100
O=c1oc2ccc3ccccc3c2cc1-c1nc2ccccc2s1	> 100
COC[C@@H](N=CC(C)(C)C)C(C)C	> 100
C=CCc1cccc2cc(C(=O)NCc3ccccc3)c(=N)oc12	86.8
COC(=O)c1ccc(/C=C/c2cc(O)ccc2O)cc1	33
O=C(/C=C/c1ccccc1)CCC1C(=O)c2ccccc2C1=O	> 100
Brc1ccc2[nH]cc(-c3csc(-c4c[nH]c5ccccc45)n3)c2c1	13.8
COc1cc(OC)cc(Oc2nc3ccccc3nc2C(F)(F)F)c1	73.9
O=[N+]([O-])c1ccc2[nH]c(=S)[nH]c(=S)c2c1	> 100

System: MDA-MB-231 breast
Experiment: NCI tumour cell line growth inhibition, 48 h

Structure (SMILES)	TGI [µM]
O=C1Nc2cccc(Cl)c2/C1=C\c1c(Cl)nc2n1CCS2	> 100
O=c1oc2ccc3ccccc3c2cc1-c1nc2ccccc2s1	> 100
COC[C@@H](N=CC(C)(C)C)C(C)C	> 100
C=CCc1cccc2cc(C(=O)NCc3ccccc3)c(=N)oc12	> 100
COC(=O)c1ccc(/C=C/c2cc(O)ccc2O)cc1	24
O=C(/C=C/c1ccccc1)CCC1C(=O)c2ccccc2C1=O	> 100
Brc1ccc2[nH]cc(-c3csc(-c4c[nH]c5ccccc45)n3)c2c1	6.37
COc1cc(OC)cc(Oc2nc3ccccc3nc2C(F)(F)F)c1	94.9
O=[N+]([O-])c1ccc2[nH]c(=S)[nH]c(=S)c2c1	> 100

System: SK-MEL-2 melanoma
Experiment: NCI tumour cell line growth inhibition, 48 h

Structure (SMILES)	TGI [µM]
O=C1Nc2cccc(Cl)c2/C1=C\c1c(Cl)nc2n1CCS2	> 100
O=c1oc2ccc3ccccc3c2cc1-c1nc2ccccc2s1	> 100
COC[C@@H](N=CC(C)(C)C)C(C)C	> 100
C=CCc1cccc2cc(C(=O)NCc3ccccc3)c(=N)oc12	31.5
COC(=O)c1ccc(/C=C/c2cc(O)ccc2O)cc1	> 31.6
O=C(/C=C/c1ccccc1)CCC1C(=O)c2ccccc2C1=O	> 100
Brc1ccc2[nH]cc(-c3csc(-c4c[nH]c5ccccc45)n3)c2c1	9.36
COc1cc(OC)cc(Oc2nc3ccccc3nc2C(F)(F)F)c1	> 100
O=[N+]([O-])c1ccc2[nH]c(=S)[nH]c(=S)c2c1	> 100

System: RXF 393 renal
Experiment: NCI tumour cell line growth inhibition, 48 h

Structure (SMILES)	TGI [µM]
O=C1Nc2cccc(Cl)c2/C1=C\c1c(Cl)nc2n1CCS2	> 100
O=c1oc2ccc3ccccc3c2cc1-c1nc2ccccc2s1	> 100
COC[C@@H](N=CC(C)(C)C)C(C)C	> 100
C=CCc1cccc2cc(C(=O)NCc3ccccc3)c(=N)oc12	> 100
COC(=O)c1ccc(/C=C/c2cc(O)ccc2O)cc1	6.59
O=C(/C=C/c1ccccc1)CCC1C(=O)c2ccccc2C1=O	> 100
Brc1ccc2[nH]cc(-c3csc(-c4c[nH]c5ccccc45)n3)c2c1	11.2
COc1cc(OC)cc(Oc2nc3ccccc3nc2C(F)(F)F)c1	> 100
O=[N+]([O-])c1ccc2[nH]c(=S)[nH]c(=S)c2c1	> 100

System: ACHN renal
Experiment: NCI tumour cell line growth inhibition, 48 h

Structure (SMILES)	TGI [µM]
O=C1Nc2cccc(Cl)c2/C1=C\c1c(Cl)nc2n1CCS2	> 100
O=c1oc2ccc3ccccc3c2cc1-c1nc2ccccc2s1	> 100
COC[C@@H](N=CC(C)(C)C)C(C)C	> 100
C=CCc1cccc2cc(C(=O)NCc3ccccc3)c(=N)oc12	> 100
COC(=O)c1ccc(/C=C/c2cc(O)ccc2O)cc1	14.1
O=C(/C=C/c1ccccc1)CCC1C(=O)c2ccccc2C1=O	> 100
Brc1ccc2[nH]cc(-c3csc(-c4c[nH]c5ccccc45)n3)c2c1	13.2
COc1cc(OC)cc(Oc2nc3ccccc3nc2C(F)(F)F)c1	> 100
O=[N+]([O-])c1ccc2[nH]c(=S)[nH]c(=S)c2c1	> 100

System: MALME-3M melanoma
Experiment: NCI tumour cell line growth inhibition, 48 h

Structure (SMILES)	TGI [µM]
O=C1Nc2cccc(Cl)c2/C1=C\c1c(Cl)nc2n1CCS2	> 100
O=c1oc2ccc3ccccc3c2cc1-c1nc2ccccc2s1	> 100
COC[C@@H](N=CC(C)(C)C)C(C)C	> 100
C=CCc1cccc2cc(C(=O)NCc3ccccc3)c(=N)oc12	40.4
COC(=O)c1ccc(/C=C/c2cc(O)ccc2O)cc1	5.64
O=C(/C=C/c1ccccc1)CCC1C(=O)c2ccccc2C1=O	> 100
Brc1ccc2[nH]cc(-c3csc(-c4c[nH]c5ccccc45)n3)c2c1	8.21
COc1cc(OC)cc(Oc2nc3ccccc3nc2C(F)(F)F)c1	> 100
O=[N+]([O-])c1ccc2[nH]c(=S)[nH]c(=S)c2c1	> 100
